Each structure is given as a SMILES string. Like-named read-outs stand apart in the source and are kept apart here.

For test [1], the target named is T1, human NK3 receptor (Homo sapiens (Human), UniProt P29371). The test can be described thus: Human NK3 receptor binding assay at 1 uM. Particulars: 1 μM test compound; [3H]SR142801, CHO cell membranes; read-out: percent inhibition at 1 μM. On the procedure: Antagonist activity was evaluated at a concentration of 1 μM for a representative subset of test compounds, and the results were expressed as the percent inhibition at that concentration.
T1 sequence (P29371 whole entry): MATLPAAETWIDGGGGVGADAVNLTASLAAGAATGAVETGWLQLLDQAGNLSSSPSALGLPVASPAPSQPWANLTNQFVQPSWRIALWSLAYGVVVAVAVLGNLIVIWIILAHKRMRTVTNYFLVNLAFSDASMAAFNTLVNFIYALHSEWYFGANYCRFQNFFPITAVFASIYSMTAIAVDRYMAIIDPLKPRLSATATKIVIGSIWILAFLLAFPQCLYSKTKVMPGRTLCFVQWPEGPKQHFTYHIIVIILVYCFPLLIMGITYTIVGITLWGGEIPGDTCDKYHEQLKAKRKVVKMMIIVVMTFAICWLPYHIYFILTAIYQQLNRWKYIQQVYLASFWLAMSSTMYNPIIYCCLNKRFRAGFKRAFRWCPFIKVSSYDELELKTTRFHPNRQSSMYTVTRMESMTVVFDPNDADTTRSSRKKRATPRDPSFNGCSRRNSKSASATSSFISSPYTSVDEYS
Each test compound was evaluated at a single concentration of 1 μM. […] The results are expressed as a percent of control specific binding ((measured specific binding/control specific binding)×100) obtained in the presence of the test compounds.

The target of test [2] is T1, human NK3 receptor. The experiment in a line: biochemical.
Description: Evaluation of the affinity of compounds for the human NK3 receptor from transfected CHO cells was performed using an antagonist radioligand binding assay. The antagonist activity of a representative subset of test compounds was evaluated over a range of concentrations, and the results were expressed as IC50 values.
Receptor binding assays were performed using crude membranes prepared from CHO cells expressing human NK3 receptor. Osanetant (SR142801), a non-peptide NK3 antagonist, was used as a ligand, and SB222200 was used as a positive control reference compound. The assay was performed with cell membrane homogenates (24 μg protein) incubated for 120 min at 22° C. with 0.4 nM [^3H]SR142801 in the absence or presence of the test compound in a buffer containing 20 mM Hepes/NaOH (pH 7.4), 120 mM NaCl, 1 mM MnCl2, 0.01% bacitracin, 0.002% aprotinin and 0.1% BSA. Following incubation, the samples were filtered rapidly under vacuum through glass fiber filters (GF/B, Packard) that had been presoaked with 0.3% PEI. The filters were rinsed several times with ice-cold 50 mM Tris/HCl using a 96-sample cell harvester (Unifilter, Packard), dried, and counted for radioactivity in a scintillation counter (Topcount, Packard) using a scintillation cocktail (Microscint 0, Packard). […] The standard reference compound, SB222200, was tested in each experiment. Nonspecific binding was determined in the presence of 10 μM SB222200. The specific ligand binding to the receptor is defined as the difference between the total binding and the nonspecific binding. The IC50 values (concentration causing a half-maximal inhibition of control specific binding) and Hill coefficients (nH) were determined by non-linear regression analysis of the competition curves generated with mean replicate values using Hill equation curve fitting (Y=D+[(A−D)/(1+(C/C50)^nH)], where Y=specific binding, D=minimum specific binding, A=maximum specific binding, C=compound concentration, C50=IC50, and nH=slope factor). […] The inhibition constants (Ki) were calculated using the Cheng Prusoff equation (Ki=IC50/(1+(L/KD)), where L=concentration of radioligand in the assay, and KD=affinity of the radioligand for the receptor). A scatchard plot was used to determine the Kd.
In test [3] the target is T1, human NK3 receptor. The test can be described thus: Human NK3 receptor binding assay at 10 μM. Conditions: 10 μM test compound, [3H]SR142801, CHO cell membranes. On the procedure: Antagonist activity was evaluated at a concentration of 10 μM for a representative subset of test compounds, and the results were expressed as the percent inhibition at that concentration.
Each test compound was evaluated at a single concentration of 10 μM. […] The results are expressed as a percent of control specific binding ((measured specific binding/control specific binding)×100) obtained in the presence of the test compounds.

Another test concerns the target GSNOR (Homo sapiens (Human), UniProt P11766). The test can be described thus: GSNOR IC50 (method in incorporated applications). Type of test: biochemical.
[4] abbreviates: read-out: percent inhibition at 10 μM.
Where [5] appears, read: read-out: NK3, % inhibition @ 10 μM.

GSNOR, sequence (P11766 whole entry): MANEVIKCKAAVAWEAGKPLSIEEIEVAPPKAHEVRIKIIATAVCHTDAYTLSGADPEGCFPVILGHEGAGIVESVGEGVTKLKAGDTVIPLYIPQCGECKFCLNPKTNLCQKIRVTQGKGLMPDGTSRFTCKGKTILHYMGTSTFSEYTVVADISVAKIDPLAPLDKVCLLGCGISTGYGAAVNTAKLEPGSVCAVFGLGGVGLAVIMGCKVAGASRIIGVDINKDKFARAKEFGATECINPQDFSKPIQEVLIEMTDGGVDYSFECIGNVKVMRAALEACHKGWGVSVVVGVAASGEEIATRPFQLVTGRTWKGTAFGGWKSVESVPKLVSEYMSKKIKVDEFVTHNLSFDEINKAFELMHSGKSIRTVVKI

Consider `CCOc1cc(C2NC(=O)N(C)C(c3ccccc3)=C2c2ccccc2)cc([N+](=O)[O-])c1O` (stereo not shown) [4-(3-ethoxy-4-hydroxy-5-nitrophenyl)-1-methyl-5,6-diphenyl-3,4-dihydropyrimidin-2(1H)-one], for which the inhibition at 1 µM at human NK3 receptor [1] was over 50%. The IC50 at human NK3 receptor [2] is at most 1000 nM.

Consider `CCOc1cc([C@@H]2NC(=O)NC(c3ccccc3)=C2c2ccccc2)cc([N+](=O)[O-])c1O` [4-(3-ethoxy-4-hydroxy-5-nitrophenyl)-5,6-diphenyl-3,4-dihydropyrimidin-2(1H)-one], for which, at human NK3 receptor [2], 19000 nM corresponded to half-maximal inhibition (IC50).

For `CCOc1cc([C@@H]2NC(=O)NC(c3ccccc3)=C2c2ccsc2)cc([N+](=O)[O-])c1O` [4-(3-ethoxy-4-hydroxy-5-nitrophenyl)-6-phenyl-5-(thiophen-3-yl)-3,4-dihydropyrimidin-2(1H)-one], at human NK3 receptor [2], the IC50 was 22000 nM. On human NK3 receptor [2], `CCOc1cc([C@H]2NC(=O)NC(c3cccnc3)=C2c2ccccc2)cc([N+](=O)[O-])c1O` [(R)-4-(3-ethoxy-4-hydroxy-5-nitrophenyl)-5-phenyl-6-(pyridin-3-yl)-3,4-dihydropyrimidin-2(1H)-one] came in with an IC50 of 700 nM. With `CCOc1cc(C2NC(=O)NC(c3ccccc3)=C2c2ccccc2F)cc([N+](=O)[O-])c1O` (stereo not shown) [4-(3-ethoxy-4-hydroxy-5-nitrophenyl)-5-(2-fluorophenyl)-6-phenyl-3,4-dihydropyrimidin-2(1H)-one], the inhibition at 1 µM at human NK3 receptor [1] is over 50%. In addition, the inhibition at 10 µM at human NK3 receptor [3] (setting [4]) is over 50%.

With `CCOc1cc(C2NC(=O)NC(c3ccccc3)=C2c2cccc(C)c2)cc([N+](=O)[O-])c1O` (stereo not shown) [4-(3-ethoxy-4-hydroxy-5-nitrophenyl)-6-phenyl-5-m-tolyl-3,4-dihydropyrimidin-2(1H)-one], at human NK3 receptor [1], the inhibition at 1 µM was over 50%. On human NK3 receptor [2], this molecule returned a half-inhibitory concentration (IC50) of at most 1000 nM. On to `CCOc1cc(C2C(c3ccccc3)=C(c3ccccc3)NC(=O)N2C)cc([N+](=O)[O-])c1O` (stereo not shown) [4-(3-ethoxy-4-hydroxy-5-nitrophenyl)-3-methyl-5,6-diphenyl-3,4-dihydropyrimidin-2(1H)-one], for which the inhibition at 1 µM at human NK3 receptor [1] is over 50%. The molecule also yielded an IC50 on human NK3 receptor [2] of at most 1000 nM. On human NK3 receptor [2], `CCOc1cc([C@H]2NC(=O)NC(c3ccccc3)=C2c2ccsc2)cc([N+](=O)[O-])c1O` [(R)-4-(3-ethoxy-4-hydroxy-5-nitrophenyl)-6-phenyl-5-(thiophen-3-yl)-3,4-dihydropyrimidin-2(1H)-one] registered an IC50 of 1400 nM. On human NK3 receptor [2], `CCOc1cc([C@H]2NC(=O)NC(c3ccccc3)=C2c2ccccc2)cc([N+](=O)[O-])c1O` [(R)-4-(3-ethoxy-4-hydroxy-5-nitrophenyl)-5,6-diphenyl-3,4-dihydropyrimidin-2(1H)-one] showed an IC50 of 110 nM. Regarding `CCOc1cc(C2NC(=O)NC(c3ccc(Cl)c(F)c3)=C2c2ccccc2)cc([N+](=O)[O-])c1O` (stereo not shown) [6-(4-chloro-3-fluorophenyl)-4-(3-ethoxy-4-hydroxy-5-nitrophenyl)-5-phenyl-3,4-dihydropyrimidin-2(1H)-one], the inhibition at 1 µM at human NK3 receptor [1] was over 50%. Moreover, the inhibition at 10 µM on human NK3 receptor [3] (setting [4]) is over 50%. For the molecule `CCOc1cc(C2NC(=O)NC(c3ccccc3)=C2c2ccccc2)cc2oc(=O)[nH]c12` (stereo not shown) [4-ethoxy-6-(2-oxo-5,6-diphenyl-1,2,3,4-tetrahydropyrimidin-4-yl)benzo[d]oxazol-2(3H)-one], the inhibition at 1 µM at human NK3 receptor [1] is over 50%. At human NK3 receptor [2], this molecule came in with a half-maximal inhibitory concentration (IC50) of at most 1000 nM.

With `COc1cc(C2NC(=O)NC(c3ccccc3)=C2c2ccccc2)cc([N+](=O)[O-])c1O` (stereo not shown) [4-(4-hydroxy-3-methoxy-5-nitrophenyl)-5,6-diphenyl-3,4-dihydropyrimidin-2(1H)-one], at human NK3 receptor [1], the inhibition at 1 µM was over 50%. For the same molecule, the inhibition at 10 µM on human NK3 receptor [3] (setting [4]) is over 50%. In the case of `CCOc1cc(C2NC(=O)NC(c3cccc(OC)c3)=C2c2ccccc2)cc([N+](=O)[O-])c1O` (stereo not shown) [4-(3-ethoxy-4-hydroxy-5-nitrophenyl)-6-(3-methoxyphenyl)-5-phenyl-3,4-dihydropyrimidin-2(1H)-one], the inhibition at 1 µM at human NK3 receptor [1] was over 50%. In addition, the inhibition at 10 µM on human NK3 receptor [3] (setting [4]) is over 50%. Turning to `CCOc1cc(C2NC(=O)NC(c3ccccc3)=C2c2ccccc2)cc([N+](=O)[O-])c1O` (stereo not shown) [4-(3-ethoxy-4-hydroxy-5-nitrophenyl)-5,6-diphenyl-3,4-dihydropyrimidin-2(1H)-one], the inhibition at 10 µM on human NK3 receptor [3] (setting [4]) is over 50%; at human NK3 receptor [3] (setting [5]), 88%.

As to `CCOc1cc([C@@H]2NC(=O)NC(c3cccnc3)=C2c2ccccc2)cc([N+](=O)[O-])c1O` [4-(3-ethoxy-4-hydroxy-5-nitrophenyl)-5-phenyl-6-(pyridin-3-yl)-3,4-dihydropyrimidin-2(1H)-one], on human NK3 receptor [2], the IC50 amounted to 55000 nM. Turning to `CCOc1cc(C2NC(=O)NC(c3ccn(C)n3)=C2c2ccsc2)cc([N+](=O)[O-])c1O` (stereo not shown) [4-(3-ethoxy-4-hydroxy-5-nitrophenyl)-6-(1-methyl-1H-pyrazol-3-yl)-5-(thiophen-3-yl)-3,4-dihydropyrimidin-2(1H)-one], the inhibition at 10 µM is over 50% at human NK3 receptor [3] (setting [4]) and 61% on human NK3 receptor [3] (setting [5]). On to `CCOc1cc(C2NC(=O)NC(c3ccccc3)=C2c2cccc(Cl)c2)cc([N+](=O)[O-])c1O` (stereo not shown) [5-(3-chlorophenyl)-4-(3-ethoxy-4-hydroxy-5-nitrophenyl)-6-phenyl-3,4-dihydropyrimidin-2(1H)-one], for which the inhibition at 1 µM at human NK3 receptor [1] was over 50%. In addition, the concentration for half-maximal inhibition (IC50) against human NK3 receptor [2] was at most 1000 nM. On to `CCOc1cc(C2NC(=O)NC(c3cnn(C)c3)=C2c2ccsc2)cc([N+](=O)[O-])c1O` (stereo not shown) [4-(3-ethoxy-4-hydroxy-5-nitrophenyl)-6-(1-methyl-1H-pyrazol-4-yl)-5-(thiophen-3-yl)-3,4-dihydropyrimidin-2(1H)-one], for which the inhibition at 10 µM at human NK3 receptor [3] (setting [4]) was over 50%. The molecule `Cn1cc(C2=C(c3ccsc3)[C@H](c3ccc(C(=O)O)c(O)c3)NC(=O)N2)cn1` [2-hydroxy-4-(6-(1-methyl-1H-pyrazol-4-yl)-2-oxo-5-(thiophen-3-yl)-1,2,3,4-tetrahydropyrimidin-4-yl)benzoic acid] returned an IC50 against GSNOR of 23 nM.

For `O=C1NC(c2ccccc2)=C(c2ccccc2)C(c2cc(Cl)c(O)c([N+](=O)[O-])c2)N1` (stereo not shown) [4-(3-chloro-4-hydroxy-5-nitrophenyl)-5,6-diphenyl-3,4-dihydropyrimidin-2(1H)-one], the inhibition at 10 µM on human NK3 receptor [3] (setting [4]) was over 50%.

Consider `CCOc1cc(C2NC(=O)NC(c3ccccc3)=C2c2cccc(C#N)c2)cc([N+](=O)[O-])c1O` (stereo not shown) [3-(4-(3-ethoxy-4-hydroxy-5-nitrophenyl)-2-oxo-6-phenyl-1,2,3,4-tetrahydropyrimidin-5-yl)benzonitrile], for which, at human NK3 receptor [3] (setting [4]), the inhibition at 10 µM was over 50%. Consider `CCOc1cc(C2NC(=O)NC(c3ccccc3)=C2c2ccccc2)cc(C#N)c1O` (stereo not shown) [3-ethoxy-2-hydroxy-5-(2-oxo-5,6-diphenyl-1,2,3,4-tetrahydropyrimidin-4-yl)benzonitrile], for which the inhibition at 1 µM at human NK3 receptor [1] is over 50%. In addition, the IC50 at human NK3 receptor [2] is at most 1000 nM. Further, the inhibition at 10 µM on human NK3 receptor [3] (setting [4]) is over 50%. As for `COCCOc1cc(C2NC(=O)NC(c3ccccc3)=C2c2ccccc2)cc([N+](=O)[O-])c1O` (stereo not shown) [4-(4-hydroxy-3-(2-methoxyethoxy)-5-nitrophenyl)-5,6-diphenyl-3,4-dihydropyrimidin-2(1H)-one], the inhibition at 1 µM at human NK3 receptor [1] is over 50%. Moreover, the inhibition at 10 µM on human NK3 receptor [3] (setting [4]) was over 50%.

As for `Cn1cc(C2=C(c3ccsc3)C(c3ccc(C(=O)O)c(O)c3)NC(=O)N2)cn1` (racemic) [2-hydroxy-4-(6-(1-methyl-1H-pyrazol-4-yl)-2-oxo-5-(thiophen-3-yl)-1,2,3,4-tetrahydropyrimidin-4-yl)benzoic acid], the IC50 against GSNOR was found to be 39 nM. With `CCOc1cc(C2NC(=O)NC(c3cccnc3)=C2c2ccsc2)cc([N+](=O)[O-])c1O` (stereo not shown) [4-(3-ethoxy-4-hydroxy-5-nitrophenyl)-6-(pyridin-3-yl)-5-(thiophen-3-yl)-3,4-dihydropyrimidin-2(1H)-one], the inhibition at 10 µM is over 50% on human NK3 receptor [3] (setting [4]) and 63% at human NK3 receptor [3] (setting [5]). Consider `CCOc1cc(C2C(c3ccccc3)=C(c3ccccc3)N(C)C(=O)N2C)cc([N+](=O)[O-])c1O` (stereo not shown) [4-(3-ethoxy-4-hydroxy-5-nitrophenyl)-1,3-dimethyl-5,6-diphenyl-3,4-dihydropyrimidin-2(1H)-one], for which the inhibition at 1 µM on human NK3 receptor [1] is over 50%. The IC50 against human NK3 receptor [2] is at most 100 nM. On to `CCOc1cc(C2NC(=O)NC(c3ccccc3)=C2c2cccs2)cc([N+](=O)[O-])c1O` (stereo not shown) [4-(3-ethoxy-4-hydroxy-5-nitrophenyl)-6-phenyl-5-(thiophen-2-yl)-3,4-dihydropyrimidin-2(1H)-one], for which the inhibition at 10 µM at human NK3 receptor [3] (setting [4]) was over 50%.

For orientation: inhibition means the relative decrease from the control value, in per cent. As usually defined, the IC50 is the point on the concentration scale where inhibition reaches its midpoint. Higher therefore signals weaker potency.

(Values after US8906933B2, “Dihydropyrimidin-2(1H)-one compounds as neurokinin-3 receptor antagonists” (N30 Pharmaceuticals, Inc., priority 2010, dated 2014).)
